Assay [1] concerns human endometrial cancer Ishikawa cells xenograft tumor. Briefly: Inhibition of growth of human endometrial cancer Ishikawa cells xenografts in nude mice. The class given is in vivo. Particulars: FIG. 11. The protocol:
Nude mice with Human endometrial cancer Ishikawa cells Xenograft Tumor were treated with the test compounds to test their effect on inhibiting tumor growth. Tumor was taken from nude mice with Ishikawa cells and cut into small pieces. Small pieces of tumor were implanted into the armpit under the right front limb of female nude mice. After the implantation, the mice were injected with E2β solution once a day at the dosage of 7 μg per mouse for 6 days to stimulate growth in the expriment mice. […] Medroxyprogesterone acetate was used as a positive control. Mixed oil was used as a negative control. The test compound was dispersed in mixed oil (20 mg/mL). […] Then the mice were sacrificed and the tumor tissues were dissected and weighed. The tumor growth inhibition rate was a percentage calculated using the formula: tumor growth inhibition rate=(average weight of the tumor in the negative control—average weight of the tumor treated with test compound) / average weight of the tumor in the negative control. The result is drawn as bar graph, referring to FIG. 11.
(In general: In xenograft studies the graft and the host belong to different species.)

Another assay concerns Molt-4 cells. The experiment in a line: Inhibition of growth of acute lymphoblastic leukemia Molt-4 cells by MTT method. Particulars: Homo sapiens, 10^−6M, 72 hours, read-out: The inhibition percentage of cell proliferation by the compounds with a concentration of 10^−6M, Molt-4 cells. Format: cell-based. As to the method: B: Inhibition of Growth of Acute Lymphoblastic Leukemia Molt-4 Cells by the Compounds Detected by MTT Method
The acute lymphoblastic leukemia Molt-4 cells from ATCC were maintained in RPMI-1640 and 10% fetal calf serum at 37° C. in a 5% CO2 atmosphere. The cells were subseeded in a 96-well culture plate at a concentration of 6×10^3 cells/well and maintained RPMI-1640 and 10% fetal calf serum at 37° C. 5%CO2 atmosphere. Molt-4 cells were treated with a test compound dissolved in DMSO at the concentration of 0, 10^−4M, 10^−5M, 10^−6M, 10^−7M, 10^−8M for 72 hours. OD value was tested by MTT method, and the inhibition ratio was calculated.

A further assay deals with lung cancer H460 cells. The experiment in a line: Inhibition of lung cancer cells H460 in vitro by MTT method. The note with it: Homo sapiens, NCI-H460, 72 hours, FIG. 5, read-out: IC50, in vitro inhibition on cell line H460 of lung cancer. Format: cell-based. The protocol:
A: Inhibition of Lung Cancer Cells H460 In Vitro by the Compounds by MTT Method
The lung cancer H460 cells were subseeded in a 96-well culture plate at a concentration of 4.0×10^3 cells/well and maintained in phenol red free medium containing 2.5% CS-FBS at 37° C. in a 5% CO2 atmosphere. H460 cells were treated with a test compound dissolved in DMSO at the concentration of 0, 1, 2, 4, 8, 10 and 20 μM for 72 hours. OD value was tested by MTT method, and the inhibition percentage was calculated.
On the technique in general: Tetrazolium assays rely on reduction of a dye to a coloured formazan, in cell work by metabolically active cells.

The subject of assay [2] is pancreatic cancer PANC-1 cells. The experiment in a line: Inhibition of pancreatic cancer cells PANC-1 in vitro by MTT method. Format: cell-based. The note with it: Homo sapiens; PANC-1, MTT, 72 hours, FIG. 7; read-out: IC50, in vitro inhibition on cell line PANC-1 of pancreatic cancer. The protocol:
A: Inhibition of Pancreatic Cancer Cells PANC-1 In Vitro by the Compounds by MTT Method
The pancreatic cancer PANC-1 cells were subseeded in a 96-well culture plate at a concentration of 3×10^3 cells/well and maintained in phenol red free 1640 medium containing 2.5% CS-FBS at 37° C. in a 5% CO2 atmosphere. PANC-1 cells were treated with a test compound dissolved in DMSO at the concentration of 0, 1, 2, 4, 8, 10 and 20 μM for 72 hours. OD value was tested by MTT method, and the inhibition percentage was calculated.

Assay [3] concerns prostate cancer cells PC-3. Briefly: Inhibition of prostate cancer cells PC-3 in vitro by MTT method. Particulars: PC-3, MTT, 72 hours, FIG. 8; read-out: IC50, in vitro inhibition on cell line PC-3 of prostatic cancer. The class given is cell-based. As to the method: A: Inhibition of Prostate Cancer Cells PC-3 In Vitro by the Compounds by MTT Method
The […] cancer PC-3 cells were subseeded in a 96-well culture plate at a concentration of 3×10^3 cells/well and maintained in medium containing 10% F12K fetal bovine serum. PC-3 cells were treated with the test compound dissolved in DMSO at the concentration of 0, 1, 2, 4, 8, 10 and 20 μM for 72 hours. OD value was tested by MTT method, and the inhibition percentage was calculated.

A further assay concerns MCF7 cells. Briefly: CellTiter-Glo Luminescent Cell Viability Assay on ER-positive breast cancer MCF-7 cells in vitro. Format: cell-based. The note with it: Homo sapiens, 72 hours, read-out: Inhibition of viability of breast cancer cells IC50, MCF7 cells. The protocol: B: CellTiter-Glo® Luminescent Cell Viability Assay on ER-Positive Breast Cancer MCF-7 Cells In Vitro:
MCF7 cells from ATCC were maintained in an Dulbecco's modified Eagle medium (DMEM), and 10% fetal calf serum at 37 in a 5% CO2 atmosphere. Cells were placed at a density of 6×10^3 cells per well in a 96-well plate. MCF 7 cells were treated with a test compound dissolved in DMSO at the concentration of 0, 0.3 μM, 0.5 μM, 1 μM, 2 μM, 3 μM, 5 μM, 10 μM, 20 μM, 30 μM, 50 μM and 100 μM for 72 hours. Treated cells were examined through CellTiter-Glo® Luminescent Cell Viability Assay Kit (Promega), and luminescence were recorded with Envision.
Background: Cellular ATP, detected with luciferase, serves as a proxy for viable cell number.

For the next assay, the system named is BEL-7402 cells. The experiment in a line: Inhibition of liver cancer cell BEL-7402 in vitro by SRB. Format: cell-based. The note with it: Homo sapiens, 10^−6M, 72 hours, read-out: The inhibition percentage of cell proliferation by the compounds with a concentration of 10^−6M, BEL-7402 cells. The protocol: A: Inhibition of Liver Cancer Cell BEL-7402 In Vitro by the Compounds Detected by SRB
The liver cancer BEL-7402 cells from ATCC were maintained in DMDM, 10% NCS and 50 μg/ml KANA at 37° C. in a 5% CO2 atmosphere, and were subseeded in a 96-well culture plate at a concentration of 6×10^3 cells/well. BEL-7402 cells were treated with a test compound dissolved in DMSO at the concentration of 0, 10^−4M, 10^−5M, 10^−6M, 10^−7M, 10^−8M for 72 hours. OD value was tested by SRB method, and the inhibition percentage was calculated.

pIC50: −log10 of the molar value.

Here are results for 1 compound from patent US9221781B2, “Synthesis of polyhydroxy chromenone compounds and their anti-tumor effects” (BEIJING SHENOGEN PHARMA GROUP LTD., priority 2012, dated 2015).

Usually pIC50 stands for the negative decadic logarithm of the IC50, by convention in mol/L.

For the compound `CC(C)=CCc1c(O)cc(O)c2c(=O)c(O)c(-c3ccc(C(F)(F)F)cc3)oc12` [Compound 1, 2-(4-trifluoromethylphenyl)-3,5,7-trihydroxy-8-(3-methyl-2-buten-1-yl)-4H-chromen-4-one], the “average tumor weight, inhibition on tumor growth” value in assay [1] (Ishikawa bearing nude mice, 17.5, 35 and 70 mg/kg, 20 days of continuous administration) is on record as “dominant inhibition on tumor growth”. Moreover, in assay [1] (Ishikawa bearing nude mice, versus DMPA 120 mg/kg, 20 days), the “inhibition effect compared with control drug DMPA” value was “higher than control drug”. Also, the inhibition at 1 µM is 43.7% in the assay on Molt-4 cells and 23.7% in the assay on BEL-7402 cells. Moreover, the pIC50 with lung cancer H460 cells is 5.40 to 6.00; in assay [2], 5.40 to 6.00; in assay [3] it was 5.40 to 6.00; with MCF7 cells, 5.70.
